Measurements reported in US6770740B1, “Crosslinked DNA condesate compositions and gene delivery methods” (The Regents of the University of Michigan, priority 1999, dated 2004).
Each block holds one molecule with its values, some of them ahead of it. Where a SMILES comes first, the peptide text is derived from it. Where no end group is shown, it is not given here. Side-chain parts run from the residue outwards. vinylsulfone = vinylsulfone linkage of the PEG to the cysteine sulfhydryl (non-reducible, from PEG-vinylsulfone)

Key:
[1] = Serum stability of DNA condensates in DNase I augmented mouse serum; type: in vitro ADME; conditions: 50% serum containing 0.12 units of DNase I, 37° C.
Procedure: DNA condensates (100 μL) were combined with 100 μL of DNase I augmented mouse serum (0.12 U of DNase I per 100 μl serum) and 3 μL of 5 M sodium chloride to bring the final salt concentration to 150 mM. Samples were incubated at 37° C. for 3 h while rapidly freezing 20 μL aliquots at time points ranging from 0 to 180 min. Serum samples were processed by adding 3 μL (0.31 U) of proteinase K and then incubated at 37° C. for 30 min to remove endonuclease activity. Sodium chloride was then added (4.6 μL of 5 M) along with trypsin (3 μL containing 7 U) and allowed to digest for 12 h at 37° C. to remove the crosslinked peptide. Samples were applied to a 1% agarose gel containing 0.05% SDS and electrophoresed as described above.

HepG2 cells [2] = assay: Cytotoxicity in cell culture: total protein of cell homogenates 24 h after transfection; type: cell-based; conditions: 1-4 mol equivalents of glutaraldehyde corresponding to 1.5-6 μM
Procedure: HepG2 cells (3×10^5) were plated on 6×35 mm wells and grown for 48 h to 40% confluence in MEM supplemented with 10% fetal calf serum (FCS). Crosslinked DNA condensates (10 μg of DNA in 200 μL) were transfected in triplicate by drop wise addition to cells in 2% FCS either with or without 80 μM chloroquine followed by 5 h incubation, after which the media was replaced with 2 mL of MEM containing 10% fetal calf serum and allowed to incubate for an additional 19 h. Wells were sampled for 10 days at 24 h intervals by removing and freezing (−20° C.) the media and replacing it with 2 mL of fresh 10% FCS MEM.
The cytotoxity of both free glutaraldehyde and crosslinked DNA condensates were examined in cell culture. The total protein of cell homogenates harvested 24 h after transfecting cells in the presence of free glutaraldehyde or crosslinked DNA condensates were indistinguishable from control, indicated no toxicity when using 1-4 mol equivalents of glutaraldehyde corresponding to 1.5-6 μM.

plasmid DNA = assay: Fluorescent dye (thiazole orange) displacement assay of peptide binding to DNA, Example 1; conditions: corresponding to a charge ratio of 1.8:1
Procedure: Peptide DNA condensates were formed by adding 75 μg of DNA (pCMVL in 750 μl of 5 mM Hepes pH 7.4) to varying amounts of peptide (7.5 to 90 nmol in 750 μl of Hepes) while vortexing, followed by equilibration at RT for 1 h. Peptide binding to DNA was monitored by a fluorescent dye displacement assay (Wadhwa et al. 1997). A 1 μg aliquot of the peptide DNA condensate was diluted to 1 ml in Hepes containing 0.1 μM thiazole orange. The fluorescence of the intercalated dye was measured on an LS50B fluorimeter (Perkin Elmer, UK) in a microcuvette by exciting at 500 nm while monitoring emission at 530 nm.

[3] = QELS particle size and zeta potential of PEG-peptide DNA condensates and co-condensates, Example 1; type: physicochemical
Procedure: The particle size of peptide DNA condensates were analyzed at a DNA concentration of 50 μg/ml in Hepes by quasielastic light scattering (QELS). The particle surface change was determined by zeta potential analysis using a Brookhaven ZetaPlus™ (Brookhaven Instruments).
DNA co-condensates were prepared by add-mixing AlkCWK18 and PEG-VS-CWK18 in ratios ranging from 0 to 100 mol %, and condensing DNA at a charge ratio of 2.3:1 as described above. To establish the mol ratio of peptides bound to DNA, condensates were dialyzed in a fixed volume (0.5 ml) dialyzer for 75 h against water using a 100,000 MWCO membrane. Peptide DNA condensates in the retentate (0.5 ml) were dissociated by adding 50 μl of 5 M sodium chloride in 0.1% TFA. AlkCWK18 and PEG-VS-CWK18 were quantified by injecting 1 nmol of peptide (100 μl) onto analytical RP-HPLC eluted with 0.1% TFA and a gradient of acetonitrile (5 to 65% over 30 min) while detecting tryptophan by fluorescence (λex 280 nm, λem 350 nm). The peak integration areas were used to quantify AlkCWK18 and PEG-VS-CWK18 with reference to standard curves developed for each peptide.

[4] = Solubility of peptide DNA condensates: particle size as a function of DNA concentration; type: physicochemical; conditions: throughout DNA concentrations 0.05-2 mg/ml
HepG2 cells [5] = assay: In vitro luciferase gene expression, Example 1; type: cell-based; conditions: HepG2, 24 h post-transfection, 10 μg DNA, 80 μM chloroquine
Procedure: HepG2 cells were plated at 1.5×10^5 cells per 35 mm well and grown to 40-70% confluence in MEM supplemented with 10% fetal calf serum (FCS). Peptide DNA condensates (10 μg of DNA) were added dropwise to triplicate sets of cells in 2% FCS containing 80 μM chloroquine. After 5 h incubation at 37° C., the media was replaced with MEM supplemented with 10% FCS, and luciferase expression was determined at 24 h. Cells were washed twice with ice-cold phosphate buffered saline (calcium and magnesium free) and then treated with 0.5 ml of ice-cold lysis buffer (25 mM Tris hydrochloride pH 7.8, 1 mM EDTA, 8 mM magnesium chloride, 1% Triton X-100, 1 mM DTT) for 10 min. The cell lysate was scraped, transferred to 1.5 ml micro centrifuge tubes, and centrifuged for 7 min at 13,000 g at 4° C. to pellet debris.
Lysis buffer (300 μl), sodium-ATP (4 μl of a 180 mM solution, pH 7, 4° C.) and cell lysate (100 μl, 4° C.) were combined in a test tube, briefly mixed and immediately placed in the luminometer. Luciferase relative light units (RLU) were recorded on a Lumat™ LB 9501 (Berthold Systems, Germany) with 10 sec integration after automatic injection of 100 μl of 0.5 mM D-luciferin (prepared fresh in lysis buffer without DTT). […]

HepG2 cells [6] = assay: Cell binding of 125I-DNA condensates, Example 1; type: cell-based; conditions: 5 h transfection, 10 μg 125I-DNA condensates
Procedure: Iodinated plasmid DNA was prepared with specific activity of 300 nCi per μg of DNA as described previously (Teribesi et al., 1998). Prior to forming DNA condensates, the specific activity of the ^125I DNA was adjusted to 4.5 nCi per μg of DNA by combining with unlabeled plasmid. DNA condensates were prepared using AlkCWK18, PEG-SS-CWK18 or PEG-VS-CWK18 as described above. Peptide ^125I-DNA condensates (10 μg) were used to transfer HepG2 cells for 5 h according to the procedure described above. The radioactive media was removed, cells were washed with phosphate buffered saline, harvested with lysis buffer, and the cell-associated radioactivity was quantified by gamma counting.

[7] = Particle size and zeta potential of peptide DNA condensates after freeze-drying and rehydration, Example 2; type: physicochemical; conditions: no sucrose
Procedure: The concentration of AlkCWK18 and PEG-CWK18 were determined by UV absorbance (Trp, ε280 nm=5,600 M^−1 cm^−1). Peptide DNA condensates were prepared in 5 mM Hepes pH 5 at a peptide/DNA stoichiometry of 0.3 nmol of peptide/μg of DNA. The condensates were formed by adding 450 μL of 100 μg/mL NT-βGal drop wise to 450 μL of 30 nmol/mL AlKCWK18 or PEG-CWK18 while vortexing. Each sample was prepared in triplicate, and after a 30 min equilibration, 20-100 μL of 50 wt/vol % solutions of either glucose, mannitol, galactose, dextran or sucrose were added followed by normalization to 1 mL to give a final sugar concentration of 1-5 wt/vol % and DNA concentration of 50 μg/mL.
The mean particle size of 50 μg/mL AlkCWK18 DNA condensates were determined by quasielastic light scattering (QELS) on a Brookhaven ZetaPlus™. Samples (1 mL) were frozen rapidly in dry ice ethanol in a 1.5 mL microcentrifuge tube and then lyophilized on a Labconco™ freeze dryer for 24 h operated at a constant vacuum of 55×10^−6 mBar while maintained at room temperature (22° C.). The maximal vacuum was achieved within 2 min after applying the sample.
At the highest sucrose concentration of 5 wt/vol %, samples remained frozen throughout freeze-drying but dried to form a glassy solid after 24 h. […] Freeze-dried samples prepared in triplicate were reconstituted in 1 mL of deionized water, allowed to equilibrate for 30 min and then analyzed by QELS as described above. Large peptide DNA condensates were measured by light microscopy with magnification of 100X. The particle size of PEG-peptide DNA condensates were also measured by transmission electron microscopy (TEM) according to a published procedure (Wadhwa et al., 1997).
The relationship between pH and rehydrated peptide DNA condensate particle size was examined in 5 mM Hepes at a pH range of 3-7. The particle size of 50 μg/mL DNA condensates in 5 wt/vol % sucrose was determined by QELS before and after freeze-drying as described above.
The rehydrated particle size of AlkCWK18 or PEG-CWK18 DNA condensates were also examined at a concentration of 0.05-5 mg/mL in 5 mM Hepes pH 5 with (AlkCWK18 DNA) or without (PEG-CWK18 DNA) the addition of 5 wt/vol % sucrose. DNA condensates were freeze-dried and reconstituted to the original concentration. QELS particle size analysis before and after freeze-drying required dilution of an aliquot of the sample to concentration of 50 μg/mL. Freeze-dried 5 mg/mL PEG-CWK18 DNA condensates were also reconstituted in 0.9 wt/vol % sodium chloride and analyzed for particle size.

- time of stability of DNA before metabolism into oligonucleotides [1]: 60 min
Molecule: NCCCC[C@H](NC(=O)[C@H](CCCCN)NC(=O)[C@H](CCCCN)NC(=O)[C@H](CCCCN)NC(=O)[C@H](CCCCN)NC(=O)[C@H](CCCCN)NC(=O)[C@H](CCCCN)NC(=O)[C@H](CCCCN)NC(=O)[C@H](CCCCN)NC(=O)[C@H](CCCCN)NC(=O)[C@H](CCCCN)NC(=O)[C@H](CCCCN)NC(=O)[C@H](CCCCN)NC(=O)[C@H](CCCCN)NC(=O)[C@H](CCCCN)NC(=O)[C@H](CCCCN)NC(=O)[C@H](CCCCN)NC(=O)[C@H](CCCCN)NC(=O)[C@H](Cc1c[nH]c2ccccc12)NC(=O)[C@@H](N)CS)C(=O)O [CWK18, Cys-Trp-Lys18] (H-CWKKKKKKKKKKKKKKKKKK-OH; N-terminus and C-terminus assumed)

Molecule: O=CCCCC=O [glutaraldehyde]
- cytotoxicity (HepG2 cells [2]): no toxicity

- peptide:DNA stoichiometry at the asymptote of the dye displacement titration curve (relative DNA binding affinity) (plasmid DNA): 0.3 nmol per μg of DNA
Molecule: PEG-VS-CWK18: non-reducible PEG-peptide from PEG-vinylsulfone (5 kDa) and the sulfhydryl of CWK18 (C([vinylsulfone-PEG 5 kDa])WKKKKKKKKKKKKKKKKKK)
- zeta potential of DNA condensates ([3]; charge ratio 1.8:1): +10 mV
- mean diameter of DNA condensates ([3]; charge ratio of 1.8:1 or higher, 50 μg/ml DNA in Hepes): 90 nm
- mean diameter of DNA condensates [4]: < 100 nm
- reduction of spontaneous gene transfer (luciferase expression) relative to AlkCWK18 DNA condensates (HepG2 cells [5]): 1000 fold
- cell associated 125I-DNA, percent of dose (HepG2 cells [6]): 0.2%
- particle diameter of freeze-dried and rehydrated DNA condensates by TEM ([7]; 5 mg/mL DNA): less than 100 nm
- DNA concentration up to which particle size was retained on rehydration ([7]; rehydrated in water or normal saline): 5 mg/mL
